What was measured:
[1] = test system: LLC1 lung carcinoma tumor; assay: Lewis lung carcinoma-bearing mouse model; type: in vivo; conditions: LLC1-bearing mice, 2-week treatment, 4 and 8 mg/kg/day intraperitoneal, FIG. 1A
Excerpt: The experimental design and procedure according to the method reported by our previous study with minor modification (Liu et al., 2013). Briefly, male C57BL/6 mice (average of 8-week-old) were purchased from the BioLASCO (Taipei, Taiwan) and housed in a 12-h light/dark cycles with free access to food and water. All animal care followed the institutional animal ethical guidelines of ChinaMedical University (Taichung, Taiwan). After 1 week adaptation, the mice were divided randomly into three groups (n=6/group): Group 1 (control group; treatment with normal saline), Group 2 (treatment with 4 mg/kg body weight/day of […]), and Group 3 (treatment with 8 mg/kg body weight/day of […]). At first, the LLC1 lung cancer cells (6×10^5 cells in 100 μL of total volume) were injected subcutaneously into the back skin of mice to induce lung carcinoma xenografts. Two weeks later, the tumor-bearing mice began to receive the treatments according to experiment design (normal saline or […] with different dosages) by intraperitoneal injection once a day for two weeks. At the end of the study, the tumor masses were harvested to photograph and weighted.

[2] = test system: VEGF-induced vessel formation within the Matrigel plug; assay: Matrigel plug assay (VEGF-induced neovascularization); type: in vivo, mouse; conditions: mice, dose-dependent
Procedure: Male C57BL/6 (average of 6-week-old) mice were divided randomly into four groups (n=3/group): Group 1 (control group; injection with 500 μL cold-Matrigel [#356237; BD Biosciences]), Group 2 (injection with 500 μL cold-Matrigel containing 100 ng/mL VEGF and 100 U/mL heparin), Group 3 (injection with 4 μM […] dissolved in 500 μL cold-Matrigel containing 100 ng/mL VEGF and 100 U/mL heparin), and Group 4 (injection with 8 μM […] dissolved in 500 μL cold-Matrigel containing 100 ng/mL VEGF and 100 U/mL heparin). After 1 week adaptation, the mice were anesthetized and injected subcutaneously with pre-prepared cold-Matrigel gel mentioned above into the left groin region to form jelly-like plug under normal body temperature. The vascular endothelial cells will be attracted by Matrigel plug-released VEGF to form the new vessel within the Matrigel plug, whose process will be suppressed by anti-angiogenic substances added in the Matrigel plugs. After 7 days, the mice were sacrificed and the Matrigel plug was recovered and photographed. The harvested Matrigel plugs were further homogenized in 1× phosphate buffered saline (PBS) and then centrifuged at 10000×g for 10 min at 4° C. The Drabkin's Reagent (#D5941; Sigma-Aldrich, Louis, Mo., USA) was applied for examining the hemoglobin content in the supernatants of the homogenized Matrigel plugs according to the manufacturer's instructions. […]

[3] = test system: angiogenesis in chick chorioallantoic membrane; assay: Chick chorioallantoic membrane (CAM) assay; conditions: ex vivo supplementary data, dose-dependent
[4] = test system: HUVECs; assay: Transwell cell migration assay; type: cell-based, human; conditions: 0.5 μM, 16 h, FIG. 3A
Procedure: For evaluating cell migration, the HUVECs (1×10^5 cells/well) suspended within serum-free culture medium were seeded on inner surface of the upper chamber (ThinCerts™ Cell Culture Inserts with 8 μm pore size; #662638; Greiner Bio-One Inc., Monroe, N.C., USA) placed in the lower chamber (wells of a 24-well plate). For examining the cell invasion, the HUVECs were pre-mixed with equal volume of thawed Matrigel and rapidly seeded on the upper chamber. After 2 h for cell attachment, K20E at different concentrations (0.5, 1, and 2 μM) were added in the upper and the lower chambers, while 5% FBS as a chemoattractant was added in the lower chamber to facilitate cell migration or invasion. After 16 h incubation, the culture medium (or Matrigel) was removed clearly from inside the upper chamber, and the migrated or invasion cells attached on the outer surface of the upper chamber were fixed with 10% formaldehyde for 10 min at RT. The fixed cells were subsequently counterstained with hematoxylin. Relative cell number of each groups was counted from five random regions by light microscopy using a 40-fold magnification. The cell number of the control group (treated with 5% FBS alone) was defined as 100%.

[5] = test system: VEGF; assay: VEGF level in LLC1 cells (immunoblot) and culture medium (ELISA); type: cell-based, mouse; conditions: 24 h, FIG. 5
Procedure: The experiments were carried out as described previously (Pan et al., 2010). Briefly, the cells (5×10^5 cells/well) seeded on the 6-well plates and incubated with different concentrations (0.5, 1, and 2 μM) of K20E under normal culture condition for 15 min or 24 h to detect the expression levels of the phosphorylated proteins and the total proteins, respectively. The treated cells were harvested and lysed by using PROPREP® protein extraction solution (#17081; iNtRON Biotechnology, Gyeonggi-Do, South Korea). The cell lysates were further centrifuged at 13000×g at 4° C. for 10 min to collect the supernatants for sodium dodecyl sulfate-polyacrylamide gel electrophoresis (SDS-PAGE). Protein concentration was measured by the Bio-Rad protein assay kit (Bio-Rad, Hercules, Calif., USA) according to the manufacturer's instructions. Aliquots containing 30 μg protein were electrophoresed using 10% slab SDS-PAGE gels and then transferred to PVDF membranes (Immobilon-P™; Millipore, Bedford, Mass., USA). […] The luminescence signal was acquired by Fujifilm LAS-4000 system (San Leandro, Calif., USA) and quantified by using MultiGauge software (v3.0; Fujifilm). […] The relative protein expression was calculated according to the values of the control group (treated with 5% or 10% FBS alone) as 100%. […]

[6] = test system: VEGFR-2; assay: VEGFR-2 expression in HUVECs (immunoblot); type: cell-based, human; conditions: FIG. 6A
Procedure: (§1) The experiments were carried out as described previously (Pan et al., 2010). Briefly, the cells (5×10^5 cells/well) seeded on the 6-well plates and incubated with different concentrations (0.5, 1, and 2 μM) of K20E under normal culture condition for 15 min or 24 h to detect the expression levels of the phosphorylated proteins and the total proteins, respectively. The treated cells were harvested and lysed by using PROPREP® protein extraction solution (#17081; iNtRON Biotechnology, Gyeonggi-Do, South Korea). The cell lysates were further centrifuged at 13000×g at 4° C. for 10 min to collect the supernatants for sodium dodecyl sulfate-polyacrylamide gel electrophoresis (SDS-PAGE). Protein concentration was measured by the Bio-Rad protein assay kit (Bio-Rad, Hercules, Calif., USA) according to the manufacturer's instructions. Aliquots containing 30 μg protein were electrophoresed using 10% slab SDS-PAGE gels and then transferred to PVDF membranes (Immobilon-P™; Millipore, Bedford, Mass., USA). […] The luminescence signal was acquired by Fujifilm LAS-4000 system (San Leandro, Calif., USA) and quantified by using MultiGauge software (v3.0; Fujifilm). […] The relative protein expression was calculated according to the values of the control group (treated with 5% or 10% FBS alone) as 100%.

[7] = test system: MEK1/2-ERK1/2 and AKT-mTOR signaling pathway; assay: VEGFR-2 downstream signaling cascades in HUVECs (immunoblot); type: cell-based, human; conditions: activation level rather than total protein level
Procedure: as §1

[8] = test system: p53-p21 pathway; assay: p53 and p21 protein levels in HUVECs (immunoblot); type: cell-based, human; conditions: FIG. 7
Procedure: as §1

COC(=O)/C=C/c1cc(OC(C)=O)c2c(c1)[C@H](C(=O)OC)[C@@H](c1ccc(OC(C)=O)c(OC(C)=O)c1)O2 [K20E]
tumor mass [1]: dose-dependently reduced
neovessel formation within the Matrigel plug with VEGF ([2]; 4 and 8 μM, not at lower dose (1 and 2 μM), FIG. 1B upper panel): significantly decreased
hemoglobin content of the implanted Matrigel plugs with VEGF ([2]; compared to Matrigel with VEGF alone, FIG. 1B lower panel): obviously diminished
angiogenesis in CAM assay [3]: effectively reduce the angiogenesis
5% FBS-induced migration of the HUVECs [4]: markedly abolished
intracellular level of VEGF protein ([5]; LLC1 cancer cells, immunoblot): dose-dependently decrease
secreted level of VEGF protein ([5]; LLC1 culture medium, ELISA): dose-dependently decrease
expression level of intracellular and surface VEGFR-2 [6]: markedly down-regulated
MEK1/2-ERK1/2 signaling ([7]; FIG. 6B): suppressed
AKT-mTOR signaling pathway ([7]; FIG. 6C): suppressed
expression level of p21 protein [8]: dose-dependently increased
expression level of p53 protein [8]: dose-dependently increased

Source: patent US11066378B2, “Caffeic acid derivatives for anti-angiogenesis” (Taipei Medical University, priority 2015, dated 2021)
